Patent US12679824B2 (Hoffmann-La Roche Inc., priority 2020, dated 2026)
≈ marks a conversion by molar mass, not a printed value.

Each molecule was assayed on Acinetobacter baumannii ATCC17978 (assay: Minimal Inhibitory Concentration (MIC) assay). Details: Acinetobacter baumannii ATCC17978; CAMHB; 20 hours at 35±2° C.; lowest concentration that inhibits visible growth; read-out: ATCC 17978 MIC.
Type: cell-based
Experimental: Minimal Inhibitory Concentration Protocol (MIC) Assay:
Table 2 provides the in vitro potency of the compounds of present invention obtained against the strain Acinetobacter baumannii ATCC17978, which was assessed by an MIC (Minimal Inhibitory Concentration) assay as follows.
Test compounds were prepared from 10 mM DMSO stock solutions. The top dose was diluted from 10 mM to 2.5 mM by DMSO, followed by serial 2-fold 11 points dilutions in DMSO in a master plate (Greiner, Cat No: 651201). 2 μL compounds were transferred from the master plate into a new 96-well assay plate (Costar, 3599).
The growth medium […] Mueller Hinton Broth (CAMHB) was prepared by adding 22 g powder (BD, 212322) in 1 L purified water, autoclaved, and supplemented with sterilized CaCl2) (20 mg per liter) and MgCl2 (10 mg per liter).
Vials of each of the test microorganisms were maintained frozen in the vapor phase of a liquid nitrogen freezer. Took out the bacterial strain ATCC 17978 from liquid nitrogen freezer, thawed it at room temperature, and diluted the bacterial in the CAMHB medium to achieve a final inoculum of 2×10^5 CFU/mL. 98 μL of the adjusted bacteria suspension was dispensed to the assay plate and pipetted 5 times.
Then the assay plates were incubated for 20 hours at 35±2° C. in ambient air with humidity. Following incubation, MIC (μg/mL) value, the lowest concentration of drug that inhibits visible growth of the microorganism, was recorded by visual judgment of bacterial growth through magnification mirror of MIC reader, and the assay plates were photographed with Qcount system as image raw data. Meanwhile, the OD600 of assay plates was recorded with SpectraMax Plus384 as OD raw data.

SMILES | MIC
CN(C)c1ccnc(-n2ncc(-c3cnc(C(=O)Nc4ccc(C(=O)N5CCN(C(=O)C6CCNCC6)CC5)c(Cl)c4)n3C)c2C(F)(F)F)n1.O=C(O)C(F)(F)F [Example A18, N-[3-chloro-4-[4-(piperidine-4-carbonyl)piperazine-1-carbonyl]phenyl]-5-[1-[4-(dimethylamino)pyrimidin-2-yl]-5-(trifluoromethyl)pyrazol-4-yl]-1-methyl-imidazole-2-carboxamide] | 2.23 µg/mL
Cc1nn(-c2ccc(N)cn2)cc1-c1cnc(C(=O)Nc2ccc(C(=O)N3CCN(C(=O)C4CCN(C)CC4)CC3)c(Cl)c2)n1C [Example C12, 5-[1-(5-amino-2-pyridyl)-3-methyl-pyrazol-4-yl]-N-[3-chloro-4-[4-(1-methylpiperidine-4-carbonyl)piperazine-1-carbonyl]phenyl]-1-methyl-imidazole-2-carboxamide] | 38 µg/mL (≈ 58.8 µM)
COCCOc1ccc(-n2cc(-c3cnc(C(=O)Nc4ccc(C(=O)N5CCN(C(=O)C6CCNCC6)CC5)c(Cl)c4)n3C)c(C(F)(F)F)n2)nc1.O=CO [Example A7, N-[3-chloro-4-[4-(piperidine-4-carbonyl)piperazine-1-carbonyl]phenyl]-5-[1-[5-(2-methoxyethoxy)-2-pyridyl]-3-(trifluoromethyl)pyrazol-4-yl]-1-methyl-imidazole-2-carboxamide] | 1.16 µg/mL
CN1CCC(C(=O)N2CCN(C(=O)c3ccc(NC(=O)c4ncc(-c5cn(-c6ccc(N)nn6)nc5C(F)(F)F)n4C)cc3Cl)CC2)CC1 [Example C14, 5-[1-(6-aminopyridazin-3-yl)-3-(trifluoromethyl)pyrazol-4-yl]-N-[3-chloro-4-[4-(1-methylpiperidine-4-carbonyl)piperazine-1-carbonyl]phenyl]-1-methyl-imidazole-2-carboxamide] | 5.09 µg/mL (≈ 7.27 µM)
CCc1nn(-c2ccc(N)cn2)cc1-c1cnc(C(=O)Nc2ccc(C(=O)N3CCN(C(=O)C4CCN(C)CC4)CC3)c(Cl)c2)n1C [Example C13, 5-[1-(5-amino-2-pyridyl)-3-ethyl-pyrazol-4-yl]-N-[3-chloro-4-[4-(1-methylpiperidine-4-carbonyl)piperazine-1-carbonyl]phenyl]-1-methyl-imidazole-2-carboxamide] | 16.5 µg/mL (≈ 25 µM)
COc1cnc(-n2cc(-c3cnc(C(=O)Nc4ccc(C(=O)N5CCN(C(=O)C6CCNCC6)CC5)c(Cl)c4)n3C)c(C(F)(F)F)n2)nc1.O=CO [Example A4, N-[3-chloro-4-[4-(piperidine-4-carbonyl)piperazine-1-carbonyl]phenyl]-5-[1-(5-methoxypyrimidin-2-yl)-3-(trifluoromethyl)pyrazol-4-yl]-1-methyl-imidazole-2-carboxamide] | 2.19 µg/mL

Results, then the molecule that gave them:

MIC | SMILES
4.43 µg/mL | Cn1c(-c2cn(-c3ncccn3)nc2C(F)(F)F)cnc1C(=O)Nc1ccc(C(=O)N[C@H]2[C@@H]3CN(C(=O)[C@@H]4C[C@@H](O)CN4)C[C@@H]32)c(Cl)c1.O=CO [Example F2, N-[3-chloro-4-[[(1R,5S)-3-[(2S,4R)-4-hydroxypyrrolidine-2-carbonyl]-3-azabicyclo[3.1.0]hexan-6-yl]carbamoyl]phenyl]-1-methyl-5-[1-pyrimidin-2-yl-3-(trifluoromethyl)pyrazol-4-yl]imidazole-2-carboxamide]
1.12 µg/mL | CNc1ccc(-n2cc(-c3cnc(C(=O)Nc4ccc(C(=O)N5CCN(C(=O)[C@@H]6CCNC[C@H]6O)CC5)c(Cl)c4)n3C)c(C(F)(F)F)n2)nc1.O=CO [Example D2]
1.16 µg/mL | CNc1ccc(-n2cc(-c3cnc(C(=O)Nc4ccc(C(=O)N5CCN(C(=O)C6(O)CCNCC6)CC5)c(Cl)c4)n3C)c(C(F)(F)F)n2)nc1.O=CO [Example D3, N-[3-chloro-4-[4-(4-hydroxypiperidine-4-carbonyl)piperazine-1-carbonyl]phenyl]-1-methyl-5-[1-[5-(methylamino)-2-pyridyl]-3-(trifluoromethyl)pyrazol-4-yl]imidazole-2-carboxamide]
4.41 µg/mL | Cn1c(-c2cn(-c3ncccn3)nc2C(F)(F)F)cnc1C(=O)Nc1ccc(C(=O)N[C@H]2[C@@H]3CN(C(=O)C4CCNCC4)C[C@@H]32)c(Cl)c1.O=CO [Example F3, N-[3-chloro-4-[[(1S,5R)-3-(piperidine-4-carbonyl)-3-azabicyclo[3.1.0]hexan-6-yl]carbamoyl]phenyl]-1-methyl-5-[1-pyrimidin-2-yl-3-(trifluoromethyl)pyrazol-4-yl]imidazole-2-carboxamide]

Same assay, conditions: Acinetobacter baumannii, ATCC17978, 20 h, read-out: ATCC 17978 MIC

SMILES | MIC
CNc1ccc(-n2cc(-c3cnc(C(=O)Nc4ccc(C(=O)N5CCN(C(=O)C6CCNCC6)CC5)c(Cl)c4)n3C)c(C(F)(F)F)n2)nc1 [Example D1, N-[3-chloro-4-[4-(piperidine-4-carbonyl)piperazine-1-carbonyl]phenyl]-1-methyl-5-[1-[5-(methylamino)-2-pyridyl]-3-(trifluoromethyl)pyrazol-4-yl]imidazole-2-carboxamide] | 0.55 µg/mL (≈ 0.787 µM)
